Test results from patent publication US20240327463A1, “ANTIBACTERIAL PRODUCTS” (priority 2017, published 2024).
In brackets after ≈: the same amount, converted by molar mass. Read-outs that look alike come from different tables or passages of the source. Bridge positions count the residues as written; N and C are the ends. Square brackets hold non-standard residues; d marks the D form. Peptide text beside a SMILES is read from it. dNMeF = CN[C@H](Cc1ccccc1)C(=O)O

Columns and labels:
VRE ATCC 700802 = experiment: microbe, parasite or virus in culture
In short: (§1)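 Each peptide, taken up in DMSO, is diluted stepwise by halves in Mueller Hinton broth (highest level 512 μg/ml). Plates incubate 24 hours at 37° C. The MIC is read as the lowest concentration lacking visible growth, with triplicate repeats.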

MRSA DR 42412 (sputum) = experiment: microbe, parasite or virus in culture
In short: as §1

[1] = tested on: Staphylococcus aureus ATCC 29213; experiment: microbe, parasite or virus in culture
In short: as §1

M. smegmatis ATCC 607 = experiment: microbe, parasite or virus in culture; conditions: Mycolicibacterium smegmatis, ATCC607
In short: as §1

MRSA ATCC 700699 = experiment: microbe, parasite or virus in culture
In short: as §1

MRSA DM21455 (eye) = experiment: microbe, parasite or virus in culture
In short: as §1

ATCC 29212 = experiment: microbe, parasite or virus in culture; conditions: Enterococcus
In short: as §1

SE12228 = type: cell-based
In short: (§2)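 Medium: Mueller Hinton broth for growth and dilutions; 37 °C throughout; serial dilution to well 11; n = 3.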

[2] = tested on: Staphylococcus saprophyticus ATCC 49453; type: cell-based
In short: as §2

[3] = tested on: Bacillus Cereus ATCC 11788; type: cell-based
In short: as §2

[4] = tested on: Staphylococcus saprophyticus ATCC BAA 750; type: cell-based
In short: as §2

[5] = tested on: Bacillus Subtilis ATCC 6633; type: cell-based
In short: as §2

SA4299 = type: cell-based; conditions: Table 11
In short: as §2

[6] = tested on: Staphylococcus saprophyticus ATCC 15305; type: cell-based
In short: as §2

[7] = tested on: Staphylococcus saprophyticus ATCC 49907; type: cell-based
In short: as §2

MRSA 1003 = type: cell-based, Staphylococcus aureus
In short: as §2

VRE ATCC 29212 = experiment: microbe, parasite or virus in culture; conditions: ATCC 29212
In short: as §1

VRE 1001 = type: cell-based, Enterococcus faecalis
In short: as §2

VRE 1008 = type: cell-based, Enterococcus faecalis
In short: as §2

VRE 1004 = type: cell-based, Enterococcus faecalis
In short: as §2

VRE 1002 = type: cell-based, Enterococcus faecalis
In short: as §2

MRSA ATCC 33591 [8] = conditions: MRSA ATCC 33591
In short: as §1

Enterococcus = tested on: Enterococcus
In short: as §1

[9] = tested on: human lung epithelial cell line A549; experiment: in vitro
Experimental: (§3) It was important to evaluate the cytotoxicity of Compound 26 on mammalian cells prior to in vivo studies. The cytotoxicity of Compound 26 in human lung epithelial cell line A549 and primary dermal fibroblasts (hDFs) was determined. Both of these cell culture models are already established for evaluation of cytotoxicity of antimicrobial peptides.
(§4) The stock solution of Compound 26 (500 μg/ml) was prepared fresh by directly dissolving Compound 26 in cell culture medium and used. Cells were treated with dimethyl sulfoxide (DMSO, 0.1% v/v) or nocodazole (5 μg/ml dissolved in DMSO) as controls. At the end of the treatment period, metabolic activities of cells were quantified by MTS-based cell viability assay. […] After 24 h treatment with Compound 26, A549 cells (c) and hDFs (d) were fixed, fluorescently stained with rhodamine-phalloidin (red), alexa fluor 488 conjugated anti-α-tubulin (green) and Hoechst 33342 (blue) and imaged using IN Cell Analyzer 2200 automated microscope. Representative images of cells treated with Compound 26 (62.5 μg/ml for 24 h) or nocodazole (10 μg/ml, toxicity control) are shown in FIG. 2 c,d.

in vitro = conditions: human
Experimental: as §3, §4

[10] = tested on: human primary dermal fibroblasts (hDFs); experiment: in vitro
Experimental: as §3, §4

S. aureus ATCC 29213 [11] = tested on: S. aureus ATCC 29213
Pseudomonas aeruginosa = experiment: Activity against Pseudomonas aeruginosa; type: cell-based
From the text: (§5) The inclusion of 3 arginines in the above case likely perturbs the amphiphilic character of the teixobactin, resulting in a decrease in activity. […] Importantly, the hydrophobic-hydrophilic balance of these analogues was similar to natural teixobactin (two cationic charges). […] The minimum bactericidal concentrations (MBC) of teixobactin analogues against S. aureus/MRSA strains (Table 11) has been further determined. […] In view of narrow MIC distribution values and bactericidal properties, attention was focused on Compound 26 and further investigated its biological properties.

MRSA ATCC 33591 [12] = tested on: MRSA ATCC 33591
S. aureus ATCC 29213 [13] = experiment: Mice-eye model of S. aureus keratitis; type: in vivo; conditions: for mean corneal thickness: baseline 93.8±2.9 μm
From the text: The in vivo efficacy of Compound 26 in the mice-eye model of S. aureus keratitis was examined. S. aureus is one of the major etiological agents for bacterial keratitis and the toxic secretions produced by this microorganism have been implicated in corneal melt, leading to significant morbidity and vision loss. […] A total of 8 doses were applied and the progression of the infection was monitored by slit lamp examination, anterior segment optical coherent tomography (AS-OCT) and microbiological enumeration of the bacterial bioburden. Mice cornea treated with PBS had severe clinical presentation indicated by chemosis, significant presence of hypopyon like materials and corneal infiltrates (FIG. 4).

S. aureus ATCC 29213 [14] = experiment: Time-kill kinetics against S. aureus ATCC 29213; type: cell-based, Staphylococcus aureus; conditions: 0.5 μg/ml or 1 μg/ml; at 8 h
[15] = rabbit; 50 μl of 0.3% (w/v) topically 4 times/day; fluorescein staining
Experimental: The in vivo toxicity of Compound 26 in a rabbit corneal damage model was examined. A 50 μl of 0.3% (w/v) solution was applied topically (4 times/day) to the circularly debrided cornea and reepithelialisation was monitored by fluorescein staining. Vehicle alone served as control.

[16] = tested on: panel of antibiotic-resistant and antibiotic susceptible Gram-positive pathogens; conditions: average over tested strains
In short: as §1

S. aureus/MRSA strains = experiment: Minimum bactericidal concentrations against S. aureus/MRSA strains; type: cell-based, Staphylococcus aureus; conditions: tested S. aureus/MRSA strains
From the text: as §5

[17] = tested on: Staphylococcus aureus ATCC 29213; conditions: reported for a teixobactin analogue; cited from earlier work

CN[C@H](CC(C)C)C(=O)N[C@H]1C(=O)N[C@@H](CC(N)=O)C(=O)N[C@H]2C(=O)N[C@H]3C(=O)N[C@H](C(=O)N[C@H](C(=O)O)c4cc(O)cc(O)c4-c4cc3ccc4O)[C@H](O)c3ccc(c(Cl)c3)Oc3cc2cc(c3O[C@@H]2O[C@H](CO)[C@@H](O)[C@H](O)[C@H]2O[C@H]2C[C@](C)(N)[C@H](O)[C@H](C)O2)Oc2ccc(cc2Cl)[C@H]1O [Vancomycin, reference compound]
MIC (VRE ATCC 700802; Enterococcus): > 4 µg/mL | MIC (MRSA DR 42412 (sputum); Staphylococcus aureus, MRSA): 2 µg/mL (≈ 1.38 µM) | MIC ([1]; Staphylococcus aureus, ATCC29213): 4 µg/mL (≈ 2.76 µM) | MIC (M. smegmatis ATCC 607): > 64 µg/mL | MIC (MRSA ATCC 700699; Staphylococcus aureus): 2 µg/mL (≈ 1.38 µM) | MIC (MRSA DM21455 (eye); Staphylococcus aureus, MRSA): 2 µg/mL (≈ 1.38 µM) | MIC (ATCC 29212): > 4 µg/mL

CC[C@@H](C)[C@@H](NC(=O)[C@@H](CCCNC(=N)N)NC(=O)[C@H](CCCNC(=N)N)NC(=O)[C@@H](NC(=O)[C@@H](Cc1ccccc1)NC)[C@@H](C)CC)C(=O)N[C@H](C(=O)N[C@@H](CO)C(=O)N[C@H]1C(=O)N[C@@H](CCCNC(=N)N)C(=O)N[C@@H](CC(C)C)C(=O)N[C@@H]([C@@H](C)CC)C(=O)O[C@H]1C)[C@@H](C)CC [Compound 31, Arg3-D-Arg4-Arg9-Leu10-teixobactin] (H-[dNMeF]IR[dR][dI]IS[dT]RLI; ester 8-C)
MIC (SE12228): <0.0625 µg/mL | MIC ([2]; ATCC 49453): <0.0625 µg/mL | MIC [3]: 1 µg/mL (≈ 0.723 µM) | MIC ([4]; ATCC BAA 750): <0.0625 µg/mL | MIC [5]: <0.0625 µg/mL | MIC (SA4299): 1 µg/mL (≈ 0.723 µM) | MIC ([6]; ATCC 15305): 0.25 µg/mL (≈ 0.181 µM) | MIC ([7]; ATCC 49907): <0.0625 µg/mL | MIC (MRSA 1003): 2 µg/mL (≈ 1.45 µM) | MIC (VRE ATCC 700802; ATCC 700802): 4 µg/mL (≈ 2.89 µM) | MIC (MRSA DR 42412 (sputum); DR 42412 (sputum)): 2 µg/mL (≈ 1.45 µM) | MIC against Staphylococcus aureus ATCC 29213 [1]: 1 µg/mL (≈ 0.723 µM) | MIC (MRSA ATCC 700699; ATCC 700699): 2 µg/mL (≈ 1.45 µM) | MIC (VRE ATCC 29212): 4 µg/mL (≈ 2.89 µM) | MIC (MRSA DM21455 (eye); DM21455 (eye)): 2 µg/mL (≈ 1.45 µM) | MIC (VRE 1001): 2 µg/mL (≈ 1.45 µM) | MIC (VRE 1008): 8 µg/mL (≈ 5.78 µM) | MIC (VRE 1004): 4 µg/mL (≈ 2.89 µM) | MIC (VRE 1002): 8 µg/mL (≈ 5.78 µM) | MIC against MRSA ATCC 33591 (MRSA ATCC 33591 [8]): 1 µg/mL (≈ 0.723 µM) | MIC in Enterococcus (Enterococcus): 2 to 8 µg/mL

CC[C@@H](C)[C@@H](NC(=O)[C@@H](CCCNC(=N)N)NC(=O)[C@H](CO)NC(=O)[C@@H](NC(=O)[C@@H](Cc1ccccc1)NC)[C@@H](C)CC)C(=O)N[C@H](C(=O)N[C@@H](CO)C(=O)N[C@H]1C(=O)N[C@@H](C)C(=O)N[C@@H](CC(C)C)C(=O)N[C@@H]([C@@H](C)CC)C(=O)O[C@H]1C)[C@@H](C)CC [Compound 26, D-Arg4-Leu10-teixobactin]
cell morphology, high content images [9]: absence of any cytoskeletal and nuclear disruption | viability at 24 h, 250 µg/mL (in vitro; A549 lung epithelial cells): 80% | viability at 24 h, 250 µg/mL (in vitro; primary dermal fibroblasts (hDFs)): 80% | cell morphology, high content images [10]: absence of any cytoskeletal and nuclear disruption | calculated frequency of resistance (S. aureus ATCC 29213 [11]): < 10^−10 | resistant mutants, single step resistance (S. aureus ATCC 29213 [11]; 5×, 10×, 20×MIC): could not be obtained | MIC ([2]; Staphylococcus saprophyticus ATCC 49453, Table 11): <0.0625 µg/mL | MIC [3]: 0.5 µg/mL (≈ 0.407 µM) | MIC ([4]; Staphylococcus saprophyticus ATCC BAA 750, Table 11): <0.0625 µg/mL | MIC [5]: 0.125 µg/mL (≈ 0.102 µM) | MIC ([6]; Staphylococcus saprophyticus ATCC 15305, Table 11): <0.0625 µg/mL | MIC ([7]; Staphylococcus saprophyticus ATCC 49907, Table 11): <0.0625 µg/mL | MIC (MRSA 1003): 0.5 µg/mL (≈ 0.407 µM) | activity against Pseudomonas aeruginosa (Gram negative bacteria) (Pseudomonas aeruginosa): inactive | MIC (VRE ATCC 700802; ATCC 700802): 0.5 µg/mL (≈ 0.407 µM) | MIC (MRSA DR 42412 (sputum); DR 42412 (sputum)): 0.0313 µg/mL (≈ 0.0255 µM) | MIC ([1]; SA29213, Table 11): <0.0625 µg/mL | MIC (MRSA ATCC 700699; ATCC 700699): 0.25 µg/mL (≈ 0.203 µM) | MIC (VRE ATCC 29212): 0.5 µg/mL (≈ 0.407 µM) | MIC (MRSA DM21455 (eye); DM21455 (eye)): 0.0313 µg/mL (≈ 0.0255 µM) | calculated frequency of resistance (MRSA ATCC 33591 [12]): < 10^−10 | resistant mutants, single step resistance (MRSA ATCC 33591 [12]; 5×, 10×, 20×MIC): could not be obtained | mean corneal thickness (S. aureus ATCC 29213 [13]; 24 h post treatment, 0.3% topical): 92.3±12.5 μm | mean corneal thickness (S. aureus ATCC 29213 [13]; 48 h post treatment, 0.3% topical): 121.7±3.2 μm | cornea with detectable bacterial colonies (S. aureus ATCC 29213 [13]; after 8 dosages): Five out of six | mean log10 CFU/tissue (S. aureus ATCC 29213 [13]; corneal tissues harvested after 8 dosages, ± standard error of the mean): 3.97±0.19 log10 CFU/tissue | clinical appearance of infected cornea (slit lamp) (S. aureus ATCC 29213 [13]; mice, 0.3% topical, 8 doses from 6 h p.i.): remained clear and no signs of corneal defects | MIC (VRE 1001): 0.5 µg/mL (≈ 0.407 µM) | MIC (VRE 1008): 0.5 µg/mL (≈ 0.407 µM) | MIC (VRE 1004): 0.25 µg/mL (≈ 0.203 µM) | MIC (VRE 1002): 1 µg/mL (≈ 0.813 µM) | decrease in bacterial viability (time-kill) (S. aureus ATCC 29213 [14]): ≥log10 decrease in bacterial viability | corneal wound closure / reepithelialisation versus PBS [15]: no significant difference in wound closure | average MIC [16]: 0.27 µg/mL | MIC (MRSA) (MRSA ATCC 33591 [8]; Table 10): 0.125 µg/mL (≈ 0.102 µM) | MBC relative to MIC (S. aureus/MRSA strains): ≤ 4 times the MIC

Lys3-D-Lys4-Lys10-teixobactin
reported MIC against Staphylococcus aureus ATCC 29213 [17]: 8 µg/mL
